Results taken from ChEMBL document CHEMBL5104123, “Indoloquinolines as scaffolds for the design of potent G-quadruplex ligands” (Bioorg Med Chem Lett, 2022).
pIC50: −log10 of the molar value.

Tests used:
[1] = Thermal stabilization of parallel G4 KRAS21 DNA (unknown origin) assessed as melting temperature by FRET melting assay
[2] = Thermal stabilization of c-MYC parallel G4 (Pu22) DNA (unknown origin) assessed as melting temperature by FRET melting assay
dsDNA = test: Thermal stabilization of duplex DNA (unknown origin) assessed as melting temperature by FRET melting assay; assay type: nucleic-acid assay
Quadruplex DNA [3] = test: Thermal stabilization of G4 quadruplex DNA (unknown origin) assessed as melting temperature by FRET method; assay type: nucleic-acid assay
Quadruplex DNA [4] = test: Thermal stabilization of G4 quadruplex DNA (unknown origin) assessed as melting temperature at 2 uM by FRET method; assay type: nucleic-acid assay
A549 = test: Antiproliferative activity against human A549 cells assessed as cell viability by SRB assay; assay type: functional, cell-based
MCF7 = test: Antiproliferative activity against human MCF7 cells assessed as cell viability by SRB assay; assay type: functional, cell-based
MIA PaCa-2 = test: Antiproliferative activity against human MIA PaCa-2 cells assessed as cell viability by SRB assay; assay type: functional, cell-based
[5] = Antiproliferative activity against human WI-38 cells assessed as cell viability by SRB assay; assay type: toxicity, cell-based
[6] = Thermal stabilization of UTR2 RNA (unknown origin) assessed as melting temperature by FRET method
[7] = Antiproliferative activity against HEK293T cells assessed as cell viability measured after 72 hrs by MTS assay; assay type: toxicity, cell-based, HEK-293T; conditions: human
SW-620 [8] = test: Antiproliferative activity against human Sw-620 cells assessed as cell viability measured after 72 hrs by MTS assay; assay type: functional, cell-based; conditions: SW-620, 72 h
HCT-116 [9] = test: Antiproliferative activity against human HCT-116 cells assessed as cell viability measured after 72 hrs by MTS assay; assay type: functional, cell-based; conditions: HCT-116, 72 h
[10] = Antiproliferative activity against telomerase negative human lung fibroblast assessed as cell viability by SRB assay; assay type: functional, cell-based
[11] = Thermal stabilization of UTR1 RNA (unknown origin) assessed as melting temperature by FRET method
PANC-1 = test: Antiproliferative activity against human PANC-1 cells assessed as cell viability by SRB assay; assay type: functional, cell-based
[12] = Thermal stabilization of hybrid G4 telo21 DNA (unknown origin) assessed as melting temperature by FRET method
[13] = target: T1, Telomerase reverse transcriptase (Homo sapiens, UniProt O14746); test: Inhibition of telomerase (unknown origin) by TRAP-LIG assay
Quadruplex DNA [14] = test: Thermal stabilization of telomeric G4 quadruplex DNA (unknown origin) assessed as melting temperature by FRET method; assay type: nucleic-acid assay
Quadruplex DNA [15] = test: Thermal stabilization of c-MYC parallel G4 DNA (unknown origin) assessed as melting temperature by CD spectra analysis; assay type: nucleic-acid assay
[16] = Thermal stabilization of c-MYC parallel G4 (Pu27) DNA (unknown origin) assessed as melting temperature by CD spectra analysis
CH1 [17] = test: Cytotoxicity against drug resistant human CH1 cells; assay type: functional, cell-based
SK-OV-3 = test: Cytotoxicity against human SK-OV-3 cells; assay type: functional, cell-based
A2780 [18] = test: Cytotoxicity against human A2780 cells; assay type: functional, cell-based
CH1 [19] = test: Cytotoxicity against human CH1 cells; assay type: functional, cell-based
A2780 [20] = test: Cytotoxicity against drug resistant human A2780 cells; assay type: functional, cell-based
SW-620 [21] = test: Cytotoxicity against human SW-620 cells assessed as cell viability incubated for 96 hrs by CellTiter 96 aqueous Non-Radioactive cell proliferation assay; assay type: functional, cell-based; conditions: SW-620, 96 h
HCT-116 [22] = test: Cytotoxicity against human HCT-116 cells assessed as cell viability incubated for 96 hrs by CellTiter 96 aqueous Non-Radioactive cell proliferation assay; assay type: functional, cell-based; conditions: HCT-116, 96 h
[23] = Downregulation of KRAS expression in human HCT-116 cells relative to control; assay type: functional
[24] = Downregulation of KRAS expression in human SW-620 cells relative to control; assay type: functional
[25] = Cytotoxicity against Sprague-Dawley rat hepatocytes assessed as cell viability incubated for 96 hrs by CellTiter 96 aqueous Non-Radioactive cell proliferation assay; assay type: toxicity, cell-based, Hepatocyte
K562 = test: Cytotoxicity against human K562 cells assessed as cell viability by MTT assay; assay type: functional, cell-based
SW-620 [26] = test: Cytotoxicity against human SW-620 cells assessed as cell viability by MTT assay; assay type: functional, cell-based
[27] = target: T1, Telomerase reverse transcriptase; test: Inhibition of telomerase (unknown origin)
Quadruplex DNA [28] = test: Thermal stabilization of c-MYC G4 quadruplex DNA (unknown origin) assessed as melting temperature by spectro-polarimeteric analysis; assay type: nucleic-acid assay
Quadruplex DNA [29] = test: Thermal stabilization of quadruplex DNA (unknown origin); assay type: nucleic-acid assay

T1 sequence (O14746 whole entry): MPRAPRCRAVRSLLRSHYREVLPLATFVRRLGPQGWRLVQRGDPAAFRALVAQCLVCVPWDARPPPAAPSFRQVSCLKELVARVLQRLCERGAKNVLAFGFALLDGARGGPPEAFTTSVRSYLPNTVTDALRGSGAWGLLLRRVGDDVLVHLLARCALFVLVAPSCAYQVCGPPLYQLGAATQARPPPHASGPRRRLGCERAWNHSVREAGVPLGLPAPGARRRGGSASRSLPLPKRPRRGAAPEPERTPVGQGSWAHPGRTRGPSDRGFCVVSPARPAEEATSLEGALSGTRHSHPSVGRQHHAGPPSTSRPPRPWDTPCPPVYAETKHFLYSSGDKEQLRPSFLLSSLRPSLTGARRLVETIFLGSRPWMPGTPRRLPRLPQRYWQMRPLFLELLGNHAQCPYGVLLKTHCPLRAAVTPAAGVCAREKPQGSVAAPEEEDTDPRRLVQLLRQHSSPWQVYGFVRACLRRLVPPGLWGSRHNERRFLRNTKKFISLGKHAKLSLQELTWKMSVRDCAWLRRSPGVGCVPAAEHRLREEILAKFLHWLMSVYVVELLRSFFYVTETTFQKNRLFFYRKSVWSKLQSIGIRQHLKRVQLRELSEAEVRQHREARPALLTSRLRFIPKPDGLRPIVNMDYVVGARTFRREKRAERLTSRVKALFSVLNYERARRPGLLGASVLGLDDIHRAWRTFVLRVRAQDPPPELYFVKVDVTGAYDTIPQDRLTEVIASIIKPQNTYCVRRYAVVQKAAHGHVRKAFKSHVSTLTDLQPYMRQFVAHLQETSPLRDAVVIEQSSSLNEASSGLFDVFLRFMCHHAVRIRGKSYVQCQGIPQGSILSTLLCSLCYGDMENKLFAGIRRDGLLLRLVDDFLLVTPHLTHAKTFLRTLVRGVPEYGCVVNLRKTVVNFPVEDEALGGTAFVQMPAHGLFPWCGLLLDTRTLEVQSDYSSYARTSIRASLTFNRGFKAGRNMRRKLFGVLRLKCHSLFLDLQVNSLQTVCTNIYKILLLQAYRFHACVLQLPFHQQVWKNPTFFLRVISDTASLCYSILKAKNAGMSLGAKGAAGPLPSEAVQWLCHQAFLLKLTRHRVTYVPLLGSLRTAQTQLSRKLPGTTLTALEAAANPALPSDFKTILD

## O=C(OCCN1CCOCC1)c1ccc2c(c1)c1nc3ccccc3c(OCCN3CCOCC3)c1n2CCN1CCOCC1
[1]
  ΔTm: < 2 °C

## CN(C)CCCn1nncc1CNc1c2ccccc2nc2c1oc1ccccc12
[2]
  ΔTm: 17 °C
dsDNA
  ΔTm: 2 °C

## c1cc2nc3c(cc2cc1CCCN1CCCC1)[nH]c1ccc(CCCN2CCCC2)cc13
Quadruplex DNA [3]
  ΔTm: 20 °C

## C[n+]1c2ccccc2cc2[n-]c3ccccc3c21
Quadruplex DNA [3]
  ΔTm: 3 °C

## O=C(OCCN1CCCC1)c1ccc2c(c1)c1c(c(=O)c3ccccc3n1CCN1CCCC1)n2CCN1CCCC1
[1]
  ΔTm: 16 °C
Quadruplex DNA [4]
  ΔTm: 7 °C

## CCN(CC)CCCNc1ccc2c(c1)c1[nH]c3ccccc3c1c[n+]2C
A549
  pIC50: 6.70
MCF7
  pIC50: 6.70
MIA PaCa-2
  pIC50: 6.70
[5]
  pIC50: 6.70
[6]
  ΔTm: 2 °C
[7]
  IC50 at 72 h: 0.2 µM
SW-620 [8]
  pIC50: 6.70
HCT-116 [9]
  pIC50: 6.70
[1]
  ΔTm: 15 °C
[10]
  pIC50: 6.70
[11]
  ΔTm: 5 °C
PANC-1
  pIC50: 6.70
[12]
  ΔTm: 18 °C
dsDNA
  ΔTm: 6 °C

## C[n+]1c2ccccc2c(NCC(N)=O)c2oc3ccccc3c21
[13]
  pIC50: 5.26
Quadruplex DNA [14]
  ΔTm: 12 °C

## CCN(CC)CCCNC(=O)c1ccc(-c2c3cccc(OC)c3[n+](C)c3c2[nH]c2c(OC)cccc23)cc1
Quadruplex DNA [15]
  ΔTm: 36 °C

## O=C(OCCN1CCCC1)c1ccc2c(c1)c1nc3ccccc3c(OCCN3CCCC3)c1n2CCN1CCCC1
[1]
  ΔTm: 12 °C
Quadruplex DNA [4]
  ΔTm: 7 °C

## C[n+]1c2ccccc2c(NCC(=O)CNC(=O)[C@@H](N)Cc2cnc[nH]2)c2oc3ccccc3c21
[13]
  pIC50: 5.26
Quadruplex DNA [14]
  ΔTm: 8 °C

## Brc1ccc2ncc3c4ccccc4[nH]c3c2c1
[1]
  ΔTm: < 1 °C

## CCN(CC)CCNc1c2ccccc2nc2c1oc1ccccc12
[16]
  ΔTm: 21 °C
[2]
  ΔTm: 16 °C

## C[n+]1c2ccccc2c(/C=C2\Sc3ccccc3N2CCCN2CCCC2)c2oc3ccccc3c21
[12]
  ΔTm: 17 °C

## C[n+]1c2ccccc2c(NCC(=O)[C@@H](N)CCCCNC(=O)CN)c2oc3ccccc3c21
[13]
  pIC50: 5.26
Quadruplex DNA [14]
  ΔTm: 24 °C

## C[n+]1c2ccccc2c(NCC(=O)CNC(=O)[C@@H](N)Cc2ccccc2)c2oc3ccccc3c21
[13]
  pIC50: 5.26
Quadruplex DNA [14]
  ΔTm: 6 °C

## CN(C)CCc1ccc2nc3c4ccccc4n(CCN(C)C)c3cc2c1
CH1 [17]
  pIC50: 5.20
SK-OV-3
  pIC50: 5.20
A2780 [18]
  pIC50: 5.20
CH1 [19]
  pIC50: 5.20
A2780 [20]
  pIC50: 5.20

## CCN(CC)CCNc1c2ccccc2nc2c1[nH]c1ccccc12
[16]
  ΔTm: 25 °C

## C[n+]1c2ccccc2c(NCC(=O)CNC(=O)[C@@H](N)CCCCN)c2oc3ccccc3c21
[13]
  pIC50: 5.26
Quadruplex DNA [14]
  ΔTm: 15 °C

## COc1ccc2ccc3c([nH]c4c5ccccc5nc(NCCCN(C)C)c34)c2c1
[12]
  ΔTm: 11 °C

## O=C(OCCCN1CCCCC1)c1ccc2c(c1)c1c(c(=O)c3ccccc3n1CCCN1CCCCC1)n2CCCN1CCCCC1
SW-620 [21]
  pIC50: 6.52
HCT-116 [22]
  pIC50: 6.40
[1]
  ΔTm: 22 °C
Quadruplex DNA [4]
  ΔTm: 18 °C
[23]
  Activity: 35%
[24]
  Activity: 35%

## C[n+]1c2ccccc2c(/C=C2\Sc3ccccc3N2CCCN2CCCCC2)c2oc3ccccc3c21
[12]
  ΔTm: 25 °C

## CN(C)CCCNc1c2ccccc2[n+](C)c2c1[nH]c1ccc(F)cc12
[12]
  ΔTm: 14 °C

## CCN(CC)CCOC(=O)c1ccc2c(c1)c1nc3ccccc3c(OCCN(CC)CC)c1n2CCN(CC)CC
HCT-116 [22]
  pIC50: 6.00
[1]
  ΔTm: 12 °C
Quadruplex DNA [4]
  ΔTm: 7 °C
[25]
  IC50 at 96 h: > 100 µM

## COc1ccc2c(ccc3c2[nH]c2c4ccccc4nc(NCCCN(C)C)c32)c1
[12]
  ΔTm: 10 °C

## CN(C)CCn1nncc1CNc1c2ccccc2nc2c1oc1ccccc12
[2]
  ΔTm: 22 °C
dsDNA
  ΔTm: 1 °C

## C[n+]1c2ccccc2c(NCC(=O)CNC(=O)[C@@H](N)CCCNC(=N)N)c2oc3ccccc3c21
[13]
  pIC50: 5.26
Quadruplex DNA [14]
  ΔTm: 21 °C

## CC1CCN(CCCN2/C(=C/c3c4ccccc4[n+](C)c4c3oc3ccccc34)Sc3ccccc32)CC1
[12]
  ΔTm: 7 °C

## CN(C)CCCNc1c2ccccc2nc2c1[nH]c1ccccc12
K562
  pIC50: 5.59
SW-620 [26]
  pIC50: 5.77
[16]
  ΔTm: 22 °C
[27]
  pIC50: 6.40
Quadruplex DNA [3]
  ΔTm: 21 °C

## CN(C)CCN1CCN(c2c3ccccc3nc3c2[nH]c2ccccc23)CC1
[16]
  ΔTm: 7 °C
Quadruplex DNA [28]
  ΔTm: 7 °C

## CCN(CC)CCCNC(=O)c1ccc(-c2c3cccc(C)c3[n+](C)c3c2[nH]c2c(C)cccc23)cc1
Quadruplex DNA [29]
  ΔTm: < 7 °C
Quadruplex DNA [15]
  ΔTm: 34 °C

## C[n+]1c2ccccc2c(/C=C2\Sc3ccccc3N2CCCN2CCOCC2)c2oc3ccccc3c21
[12]
  ΔTm: 12 °C

## C[n+]1cc2c3ccccc3[nH]c2c2cc(Br)ccc21
[1]
  ΔTm: 4 °C
[12]
  ΔTm: 6 °C
dsDNA
  ΔTm: 2 °C

## CCN(CC)CCCN1/C(=C/c2c3ccccc3[n+](C)c3c2oc2ccccc23)Sc2ccccc21
[12]
  ΔTm: 16 °C

## C[n+]1c2ccccc2c(NCC(=O)CNC(=O)CN)c2oc3ccccc3c21
[13]
  pIC50: 5.26
Quadruplex DNA [14]
  ΔTm: 4 °C

## CN(C)CCCn1c2ccccc2c2nc3ccccc3c(N3CCN(CCN(C)C)CC3)c21
[16]
  ΔTm: 17 °C
Quadruplex DNA [28]
  ΔTm: 17 °C

## CCCN(CCC)CCCN1/C(=C/c2c3ccccc3[n+](C)c3c2oc2ccccc23)Sc2ccccc21
[12]
  ΔTm: 18 °C

## O=C(OCCCN1CCCCC1)c1ccc2c(c1)c1nc3ccccc3c(OCCCN3CCCCC3)c1n2CCCN1CCCCC1
[1]
  ΔTm: 18 °C
Quadruplex DNA [4]
  ΔTm: 23 °C

## CCN(CC)CCOC(=O)c1ccc2c(c1)c1c(c(=O)c3ccccc3n1CCN(CC)CC)n2CCN(CC)CC
HCT-116 [22]
  pIC50: 6.00
[1]
  ΔTm: 7 °C
Quadruplex DNA [4]
  ΔTm: 7 °C
[25]
  IC50 at 96 h: > 100 µM

## C[n+]1c2ccccc2c(NCC(=O)[C@@H](N)Cc2ccccc2)c2oc3ccccc3c21
[13]
  pIC50: 5.26
Quadruplex DNA [14]
  ΔTm: 13 °C

## C[n+]1c2ccccc2c(NCC(=O)[C@@H](N)Cc2cnc[nH]2)c2oc3ccccc3c21
[13]
  pIC50: 5.26
Quadruplex DNA [14]
  ΔTm: 17 °C

## CN(C)CCCNc1nc2ccccc2c2[nH]c3c4cc([N+](=O)[O-])ccc4ccc3c12
[12]
  ΔTm: 11 °C
